Assay results: patent publication US7638509B2, “Diene compounds and formulations” (priority 2003, dated 2009)

Assays:
[1] = biological target: T1, glucocorticoid receptor (GR) (Homo sapiens, UniProt P04150); test: Steroid hormone specificity, GR/MMTV-Luc in PC-3 cells; assay type: cell-based; conditions: PC-3, GR/MMTV-Luc, ADEK at 0.01 mM, 0.1 mM and 1.0 mM, 24 h
T1 construct: expressed in transfected cells; host or cells: PC-3
T1 sequence (P04150 1-777): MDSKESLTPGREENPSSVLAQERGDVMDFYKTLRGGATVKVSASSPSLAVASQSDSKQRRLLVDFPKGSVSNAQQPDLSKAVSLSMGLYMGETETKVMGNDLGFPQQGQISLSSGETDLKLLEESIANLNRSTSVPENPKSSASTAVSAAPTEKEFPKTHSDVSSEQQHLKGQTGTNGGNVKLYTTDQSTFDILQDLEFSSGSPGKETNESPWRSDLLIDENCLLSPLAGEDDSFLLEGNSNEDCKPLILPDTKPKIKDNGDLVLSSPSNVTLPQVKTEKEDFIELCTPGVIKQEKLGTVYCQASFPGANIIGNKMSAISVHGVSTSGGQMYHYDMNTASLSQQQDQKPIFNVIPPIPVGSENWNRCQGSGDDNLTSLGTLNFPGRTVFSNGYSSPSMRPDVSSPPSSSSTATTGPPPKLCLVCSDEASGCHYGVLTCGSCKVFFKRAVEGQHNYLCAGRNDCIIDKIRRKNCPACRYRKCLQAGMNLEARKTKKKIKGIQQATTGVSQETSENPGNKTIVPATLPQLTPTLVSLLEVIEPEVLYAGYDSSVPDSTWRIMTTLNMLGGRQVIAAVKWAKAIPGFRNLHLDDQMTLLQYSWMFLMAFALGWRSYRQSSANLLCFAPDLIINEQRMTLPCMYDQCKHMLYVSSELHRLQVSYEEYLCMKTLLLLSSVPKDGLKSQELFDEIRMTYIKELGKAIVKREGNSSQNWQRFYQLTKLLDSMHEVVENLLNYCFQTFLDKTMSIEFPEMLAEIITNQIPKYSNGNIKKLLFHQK
Protocol: Cell Culture, Transfection, and Reporter Gene Assay. The human prostate cancer cell lines, LNCaP, PC-3, and DU145, and non-prostate cancer cell line COS-1 were maintained in RPMI or Dulbecco's modified Eagle's medium (DMEM) (Life Technologies) supplemented with 10% fetal bovine serum (FBS). Transfections and luciferase (Luc) assays were performed as previously described (Miyamoto, H., Yeh, S., Wilding, G. & Chang, C. (1998) Proc. Natl. Acad. Sci. USA 95, 7379-7384; Miyamoto, H., Rahman, M., Takatera, H., Kang, H.-Y., Yeh, S., Chang, H.-C., Nishimura, K., Fujimoto, N. & Chang, C. (2002) J. Biol. Chem. 277, 4609-4617). Briefly, cells seeded to reach a density of 50-60% confluence in 12 well tissue culture plates were transfected with 1.5 μg of DNA according to “SuperFect transfection” instructions (Qiagen). […] The Luc activity was determined using a Dual-Luciferase Reporter Assay System (Promega) and luminometer.
Steroid Hormone Specificity of ADEK. To characterize the steroid hormone activity of ADEK, PC-3 cells were transfected with steroid receptor/reporter (progesterone receptor (PR)/MMTV-Luc, glucocorticoid receptor (GR)/MMTV-Luc, or estrogen receptor (ER)/ERE-Luc) and analyzed for expression of the Luc reporter gene. […] The Luc activity was measured relative to that of ETOH treatment (set as 1-fold). […]

[2] = biological target: T2, wild-type AR (Homo sapiens, UniProt P10275); test: AR transcription, MMTV-Luc reporter in COS-1 cells co-transfected with pSG5-AR; assay type: cell-based; parameters: expressed in transfected cells; host or cells: COS-1
T2 sequence (P10275 1-920): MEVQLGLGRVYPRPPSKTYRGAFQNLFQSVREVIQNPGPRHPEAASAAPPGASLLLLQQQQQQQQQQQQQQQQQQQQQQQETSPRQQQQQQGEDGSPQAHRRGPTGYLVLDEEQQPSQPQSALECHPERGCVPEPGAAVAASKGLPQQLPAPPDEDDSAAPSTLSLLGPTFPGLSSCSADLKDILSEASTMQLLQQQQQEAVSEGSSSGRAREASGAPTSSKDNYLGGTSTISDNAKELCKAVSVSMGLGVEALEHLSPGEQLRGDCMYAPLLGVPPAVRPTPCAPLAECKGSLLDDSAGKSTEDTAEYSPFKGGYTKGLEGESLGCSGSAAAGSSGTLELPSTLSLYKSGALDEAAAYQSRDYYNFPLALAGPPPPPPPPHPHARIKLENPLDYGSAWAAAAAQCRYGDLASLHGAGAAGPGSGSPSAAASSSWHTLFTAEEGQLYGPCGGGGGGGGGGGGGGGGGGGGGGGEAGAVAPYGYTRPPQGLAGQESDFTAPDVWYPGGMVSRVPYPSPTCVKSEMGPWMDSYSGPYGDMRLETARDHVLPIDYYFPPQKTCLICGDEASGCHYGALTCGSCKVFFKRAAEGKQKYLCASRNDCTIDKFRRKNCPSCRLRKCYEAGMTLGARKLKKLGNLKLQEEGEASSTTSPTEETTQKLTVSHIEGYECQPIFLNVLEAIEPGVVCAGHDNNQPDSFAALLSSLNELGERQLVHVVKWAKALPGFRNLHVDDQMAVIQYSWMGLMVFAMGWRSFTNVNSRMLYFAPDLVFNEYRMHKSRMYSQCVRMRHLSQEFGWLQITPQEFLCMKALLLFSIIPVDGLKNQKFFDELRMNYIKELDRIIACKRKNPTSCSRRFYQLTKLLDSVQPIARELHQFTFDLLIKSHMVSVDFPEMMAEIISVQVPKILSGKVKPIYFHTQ
Protocol: Cell Culture, Transfection, and Reporter Gene Assay. The human prostate cancer cell lines, LNCaP, PC-3, and DU145, and non-prostate cancer cell line COS-1 were maintained in RPMI or Dulbecco's modified Eagle's medium (DMEM) (Life Technologies) supplemented with 10% fetal bovine serum (FBS). […] Briefly, cells seeded to reach a density of 50-60% confluence in 12 well tissue culture plates were transfected with 1.5 μg of DNA according to “SuperFect transfection” instructions (Qiagen). After 2-3 h incubation, cells were treated with medium supplemented with charcoal-stripped FBS containing either ethanol or ligands for 24 h. The cells were then harvested and whole cell extracts were used for Luc assay. The Luc activity was determined using a Dual-Luciferase Reporter Assay System (Promega) and luminometer.
The pSG5-AR was co-transfected in COS-1 cells. […] Values were obtained from the mean±SD of at least three determinations. DU145 cells were transfected with the pSG5-AR and MMTV-Luc in the presence or absence of pSG5-ARA70. […] Values were obtained for the mean±SD of at least three determinations.

Q: How did the “glucocorticoid activity (in words)” value [1] turn out when CC(=O)O[C@H]1C=C[C@@]2(C)C(=CC[C@@H]3[C@@H]2CC[C@@]2(C)[C@H]3CCC23OCCO3)C1 [ADEK, 3β-acetoxy-17,17-ethylenedioxyandrosta-1,5-diene] was run?
A: Its value is “no significant”.

Q: And the “relative Luc activity (DHT control = 100%)” value ([2]; COS-1, 1 nM DHT, compound at 0.01 μM)?
A: Its value is “about 75%”.

Q: And the “relative Luc activity (DHT control = 100%)” value ([2]; COS-1, 1 nM DHT, compound at 0.1 μM)?
A: The value was “about 60%”.

Q: And the “DHT-induced wild-type AR transcription suppressed to (relative Luc activity, DHT = 100%)” value ([2]; COS-1, 1 nM DHT, compound at 1 μM)?
A: Its value is 21%.

Q: What about the “androgenic activity on wild-type AR transcription (in words)” value ([2]; COS-1, compared with HF and casodex) of the same compound?
A: Its value is “lower androgenic activity”.
